Experimental findings from ChEMBL document CHEMBL1201862, “PubChem BioAssay data set” (2004) are described below.

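Briefly, cells in 96-well plates were exposed to five compound concentrations for 48 h, and endpoints were estimated by linear interpolation. The concentration for 50% growth inhibition is given as GI50.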 The source made the active and inactive calls. No stated cut-off is given here; in the data, active = GI50 up to about 1.1 µM and inactive = higher. Positions of bridges follow the written chain, without caps; N, C: chain ends. Residues, ends and D or L forms follow the SMILES beside them.

Some test systems named below: HT-29; NCI-H460; SK-OV-3; MOLT-4; CCRF-CEM; COLO 205; NCI-H23; 786-0; HOP-62; EKVX; HOP-92; SK-MEL-28; OVCAR-8; HCT-116; SNB-75; HCC 2998; MCF7; A549; NCI-H226; RPMI-8226.
What all share (experiment): NCI-60 cell line screen, 48 h

On to `C[C@]12CC[C@H](O)CC1=CC[C@@H]1C2CC[C@]2(C)c3nn(-c4ccc(F)cc4)nc3CC12` (stereo not given in full), for which the GI50 in the assay on HT-29 is 22.4 µM (inactive); in the assay with NCI-H460 it was 23.4 µM (inactive); with SK-OV-3, 39.4 µM (inactive); in the assay with MOLT-4 it was 96.4 µM (inactive); with CCRF-CEM, 58.1 µM (inactive); in the assay on COLO 205, 46.5 µM (inactive). Moreover, the GI50 with NCI-H23 is 63.4 µM (inactive); in the assay on 786-0 it was 45.3 µM (inactive); in the assay with HOP-62 it was 80.7 µM (inactive); in the assay with EKVX it was > 100 µM (inactive); with HOP-92, > 100 µM (inactive); in the assay on SK-MEL-28, > 100 µM (inactive). The GI50 was 85.7 µM (inactive) in the assay on OVCAR-8; 67.3 µM (inactive) in the assay on HCT-116; 28.6 µM (inactive) in the assay on SNB-75; 24 µM (inactive) in the assay with HCC 2998; > 100 µM (inactive) in the assay with MCF7; 79.4 µM (inactive) with A549. In addition, the GI50 in the assay on NCI-H226 was 44.2 µM (inactive).

`COc1ccc2c(=O)c3cc([N+](=O)[O-])ccc3n(C)c2c1`: the GI50 with NCI-H460, with RPMI-8226, with MOLT-4, in the assay with CCRF-CEM, with COLO 205 and in the assay on 786-0 was > 100 µM (inactive) each time. The GI50 with EKVX is 6.37 µM (inactive); in the assay on HOP-92 it was > 100 µM (inactive); in the assay on SK-MEL-28 it was > 100 µM (inactive); with OVCAR-8, > 100 µM (inactive); in the assay with SNB-75, > 100 µM (inactive); in the assay with HCC 2998, > 100 µM (inactive). The GI50 in the assay on MCF7, in the assay on A549 and in the assay with NCI-H226 was > 100 µM (inactive) throughout.

Take `CC1(C)OC2C(CO)OC(n3cnc(N)nc3=O)C2O1` (stereo not given): the GI50 in the assay on NCI-H460, in the assay with SK-OV-3, with RPMI-8226, in the assay with MOLT-4, in the assay with CCRF-CEM and with COLO 205 was > 100 µM (inactive) throughout. The GI50 with NCI-H23, with 786-0, in the assay on HOP-62, in the assay with EKVX, with HOP-92 and with SK-MEL-28 was > 100 µM (inactive) in each case. Besides, the GI50 with OVCAR-8, in the assay with HCT-116, with HCC 2998, with MCF7, in the assay on A549 and with NCI-H226 was > 100 µM (inactive) throughout.

On to `Cc1cc(=O)[nH]c2cc(NC(=O)C(CCCNC(=N)N)NC(=O)OCc3ccccc3)ccc12` (stereo not given), for which the GI50 with HT-29 was > 100 µM (inactive); in the assay on NCI-H460, > 100 µM (inactive); in the assay with SK-OV-3 it was 4.28 µM (inactive); in the assay on MOLT-4, > 100 µM (inactive); in the assay on CCRF-CEM, > 100 µM (inactive); with COLO 205, > 100 µM (inactive). Moreover, the GI50 was > 100 µM (inactive) with NCI-H23; > 100 µM (inactive) with 786-0; > 100 µM (inactive) in the assay with HOP-62; > 100 µM (inactive) in the assay with EKVX; 78.5 µM (inactive) in the assay on HOP-92; > 100 µM (inactive) in the assay with SK-MEL-28. For the same molecule, the GI50 in the assay with OVCAR-8, in the assay on HCT-116, with SNB-75, in the assay with HCC 2998, with MCF7 and in the assay on A549 was > 100 µM (inactive) each time. Moreover, in the assay with NCI-H226, the GI50 was > 100 µM (inactive).

`O=C1CC(C(O)C(O)C(O)CO)CC(=O)N1` (stereo not given): the GI50 in the assay on HT-29, in the assay on NCI-H460, in the assay on RPMI-8226, in the assay on MOLT-4, with CCRF-CEM and with COLO 205 was > 100 µM (inactive) each time. The GI50 with NCI-H23, in the assay with 786-0, in the assay on HOP-62, in the assay on EKVX, with HOP-92 and with SK-MEL-28 was > 100 µM (inactive) in each case. Moreover, the GI50 in the assay on OVCAR-8, with HCT-116, in the assay with SNB-75, with HCC 2998, in the assay on MCF7 and in the assay on A549 was > 100 µM (inactive) in each case. The GI50 in the assay with NCI-H226 was > 100 µM (inactive).

For the molecule `C=CCC1(O)C(=O)OC2C(O)COC21O` (stereo not given), the GI50 with HT-29, with NCI-H460, in the assay with SK-OV-3, in the assay with MOLT-4, with CCRF-CEM and in the assay with COLO 205 was > 100 µM (inactive) throughout. Also, the GI50 in the assay with NCI-H23 was > 100 µM (inactive); in the assay on 786-0 it was > 100 µM (inactive); in the assay on HOP-62 it was > 100 µM (inactive); in the assay on EKVX, > 100 µM (inactive); with HOP-92, > 100 µM (inactive); in the assay on SK-MEL-28, 23 µM (inactive). In addition, the GI50 in the assay with OVCAR-8 is > 100 µM (inactive); with HCT-116, > 100 µM (inactive); in the assay with SNB-75, 35.4 µM (inactive); in the assay with HCC 2998, > 100 µM (inactive); with MCF7, > 100 µM (inactive); in the assay on A549, > 100 µM (inactive). Moreover, the GI50 in the assay on NCI-H226 was > 100 µM (inactive).

As to `CC(O)(/C=C/c1ccccc1)P(=O)(O)c1ccccc1` (stereo not given), the GI50 in the assay on HT-29, with NCI-H460, in the assay on SK-OV-3, with COLO 205, in the assay with NCI-H23 and with 786-0 was > 100 µM (inactive) in each case. In addition, the GI50 in the assay on HOP-62, in the assay with EKVX, in the assay on HOP-92, with SK-MEL-28, in the assay with OVCAR-8 and with HCT-116 was > 100 µM (inactive) throughout. Moreover, the GI50 is 37.9 µM (inactive) in the assay with SNB-75; 47.2 µM (inactive) in the assay on HCC 2998; > 100 µM (inactive) in the assay with MCF7; > 100 µM (inactive) in the assay on A549; > 100 µM (inactive) in the assay on NCI-H226.

With `O=C1C(C(c2ccc([N+](=O)[O-])cc2)N2CCOCC2)=C(O)C(c2ccccc2)N1c1ccccc1` (stereo not given), the GI50 in the assay with HT-29, with NCI-H460, in the assay with SK-OV-3, with RPMI-8226, in the assay on MOLT-4 and in the assay on CCRF-CEM was > 10 µM (inactive) in each case. For the same molecule, the GI50 with COLO 205, in the assay on NCI-H23, in the assay on 786-0, in the assay with HOP-62, in the assay on EKVX and with SK-MEL-28 was > 10 µM (inactive) in each case. The GI50 was > 10 µM (inactive) in the assay with OVCAR-8; > 10 µM (inactive) in the assay on HCT-116; 6.14 µM (inactive) with SNB-75; > 10 µM (inactive) in the assay with HCC 2998; > 10 µM (inactive) with MCF7; > 10 µM (inactive) in the assay on A549. Further, the GI50 in the assay with NCI-H226 was > 10 µM (inactive).

Take `CN(C)Cc1cc(C(=O)/C=C/c2ccc(Cl)c(Cl)c2)cc(CN(C)C)c1O`: the GI50 in the assay on HT-29 was 1.24 µM (inactive); in the assay with NCI-H460, 2.12 µM (inactive); with RPMI-8226, 1.99 µM (inactive); in the assay on MOLT-4, 3.18 µM (inactive); in the assay on CCRF-CEM, 1.89 µM (inactive); in the assay with COLO 205, 1.29 µM (inactive). The GI50 in the assay with NCI-H23 was 5.69 µM (inactive); in the assay with 786-0, 1.36 µM (inactive); in the assay on HOP-62, 2.24 µM (inactive); in the assay on EKVX it was 8.36 µM (inactive); with HOP-92 it was 0.598 µM (active); with SK-MEL-28, 2.57 µM (inactive). Also, the GI50 with OVCAR-8 was 1.68 µM (inactive); in the assay on HCT-116, 2.77 µM (inactive); in the assay on SNB-75, 2.07 µM (inactive); in the assay on HCC 2998 it was 3.4 µM (inactive); in the assay with MCF7 it was 2.48 µM (inactive); with A549, 2.39 µM (inactive). The GI50 in the assay with NCI-H226 is 3.77 µM (inactive).

As to `CCC(C)C1NC(=O)C(CC(C)C)NC(=O)C(C(C)C)NC(=O)C2CSSCC(NC1=O)C(=O)N2` (stereo not given) (cyclo(CCVLI); disulfide 1-2; configuration not given here), the GI50 in the assay with HT-29 was 0.177 µM (active); in the assay with NCI-H460, 0.116 µM (active); with RPMI-8226 it was 0.0262 µM (active); in the assay on MOLT-4 it was 0.0165 µM (active); in the assay with CCRF-CEM, 0.0228 µM (active); with COLO 205 it was 0.0991 µM (active). In addition, the GI50 in the assay on NCI-H23 is 0.138 µM (active); with 786-0 it was 0.157 µM (active); in the assay with HOP-62 it was 0.186 µM (active); in the assay with EKVX it was 0.15 µM (active); in the assay on HOP-92, 0.121 µM (active); in the assay with SK-MEL-28, 0.122 µM (active). Also, the GI50 in the assay with OVCAR-8 is 0.194 µM (active); in the assay with HCT-116, 0.0498 µM (active); with SNB-75, 0.112 µM (active); in the assay with HCC 2998, 0.082 µM (active); in the assay on MCF7 it was 0.0318 µM (active); in the assay on A549 it was 0.177 µM (active).

Turning to `C=C1C(=O)[C@]23C[C@H]1C[C@@H](O)[C@H]2[C@]1(COC3=O)[C@@H](OC(C)=O)CC[C@@](C)(COC(C)=O)[C@H]1C=O` [LOXOTHYRIN A], the GI50 in the assay on HT-29 is > 50 µM (inactive); in the assay with NCI-H460, > 50 µM (inactive); in the assay with MOLT-4, 9.04 µM (inactive); with CCRF-CEM, 7.28 µM (inactive); in the assay with COLO 205 it was 8.53 µM (inactive); in the assay on NCI-H23 it was > 50 µM (inactive). For the same molecule, the GI50 with 786-0 is 36.4 µM (inactive); in the assay on HOP-62 it was > 50 µM (inactive); in the assay with EKVX, > 50 µM (inactive); with HOP-92 it was 10.2 µM (inactive); in the assay on SK-MEL-28, 19.5 µM (inactive); in the assay on OVCAR-8, > 50 µM (inactive). The GI50 was 37 µM (inactive) with HCT-116; > 50 µM (inactive) in the assay on SNB-75; > 50 µM (inactive) in the assay with HCC 2998; 17.8 µM (inactive) with MCF7; > 50 µM (inactive) in the assay on A549; 9.57 µM (inactive) in the assay with NCI-H226.
